This passage reports IC50 results from BindingDB's records for doi:10.1128/aac.00917-07 (Umdnj-New Jersey Medical School, 2007).

The target in this experiment is 1,3-beta-glucan synthase (Aspergillus fumigatus, UniProt P87204, S678P). Briefly: Inhibition of 1,3-beta-D-glucan synthase EMFR-S678P mutant from Aspergillus fumigatus assessed as incorporation of [3H]glucose.
Chain of 1,3-beta-glucan synthase (P87204 entry or part of it S678P): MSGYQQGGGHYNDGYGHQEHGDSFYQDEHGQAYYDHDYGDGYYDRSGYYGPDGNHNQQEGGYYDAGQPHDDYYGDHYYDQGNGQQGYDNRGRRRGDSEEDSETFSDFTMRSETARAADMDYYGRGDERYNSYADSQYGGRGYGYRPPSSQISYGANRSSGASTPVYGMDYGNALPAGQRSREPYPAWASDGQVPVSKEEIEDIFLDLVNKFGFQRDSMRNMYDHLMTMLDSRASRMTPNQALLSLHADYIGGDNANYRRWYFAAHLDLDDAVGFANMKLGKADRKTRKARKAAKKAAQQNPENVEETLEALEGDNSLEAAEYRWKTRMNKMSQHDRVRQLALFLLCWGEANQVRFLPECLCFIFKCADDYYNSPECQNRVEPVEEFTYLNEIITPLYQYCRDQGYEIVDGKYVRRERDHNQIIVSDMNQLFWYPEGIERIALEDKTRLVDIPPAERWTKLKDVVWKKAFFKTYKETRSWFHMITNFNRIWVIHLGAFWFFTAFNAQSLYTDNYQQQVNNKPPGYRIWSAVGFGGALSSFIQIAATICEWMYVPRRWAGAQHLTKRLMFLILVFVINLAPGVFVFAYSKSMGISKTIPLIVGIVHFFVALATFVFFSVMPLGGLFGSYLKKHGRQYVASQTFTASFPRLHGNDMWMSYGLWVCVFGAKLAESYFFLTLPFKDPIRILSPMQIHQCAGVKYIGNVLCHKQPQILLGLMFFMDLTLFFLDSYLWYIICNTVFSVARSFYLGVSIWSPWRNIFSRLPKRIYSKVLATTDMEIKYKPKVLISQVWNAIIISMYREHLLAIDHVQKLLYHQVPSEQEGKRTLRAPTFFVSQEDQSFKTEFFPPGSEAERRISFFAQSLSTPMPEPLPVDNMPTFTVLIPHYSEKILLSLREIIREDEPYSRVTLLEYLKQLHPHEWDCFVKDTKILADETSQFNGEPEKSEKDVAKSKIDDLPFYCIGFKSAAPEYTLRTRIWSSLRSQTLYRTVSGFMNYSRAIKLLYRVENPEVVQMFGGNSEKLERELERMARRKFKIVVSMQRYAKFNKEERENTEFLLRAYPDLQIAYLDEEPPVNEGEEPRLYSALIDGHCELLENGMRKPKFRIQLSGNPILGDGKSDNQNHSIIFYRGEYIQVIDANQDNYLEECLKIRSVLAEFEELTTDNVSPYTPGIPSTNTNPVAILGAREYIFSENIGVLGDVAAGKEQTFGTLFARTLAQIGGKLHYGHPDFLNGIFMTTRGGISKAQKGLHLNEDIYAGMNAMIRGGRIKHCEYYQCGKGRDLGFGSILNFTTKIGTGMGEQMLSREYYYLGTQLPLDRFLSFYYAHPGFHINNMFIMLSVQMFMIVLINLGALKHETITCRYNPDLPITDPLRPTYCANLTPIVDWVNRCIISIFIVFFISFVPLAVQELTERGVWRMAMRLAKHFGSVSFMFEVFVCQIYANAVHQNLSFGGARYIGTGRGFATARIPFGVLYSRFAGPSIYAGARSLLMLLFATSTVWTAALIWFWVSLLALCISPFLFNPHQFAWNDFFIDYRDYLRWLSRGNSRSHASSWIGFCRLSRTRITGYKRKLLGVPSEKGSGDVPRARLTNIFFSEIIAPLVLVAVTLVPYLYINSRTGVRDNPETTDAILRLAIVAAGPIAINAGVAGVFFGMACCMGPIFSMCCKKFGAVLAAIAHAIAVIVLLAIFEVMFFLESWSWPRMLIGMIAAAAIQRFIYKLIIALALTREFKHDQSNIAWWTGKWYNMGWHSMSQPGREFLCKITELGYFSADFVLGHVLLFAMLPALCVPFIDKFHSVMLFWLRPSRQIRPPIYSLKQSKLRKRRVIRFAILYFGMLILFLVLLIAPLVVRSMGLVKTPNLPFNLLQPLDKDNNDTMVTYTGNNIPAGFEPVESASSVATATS

In the case of `CCC(C)CC(C)CCCCCCCCC(=O)N[C@H]1C[C@@H](O)[C@@H](NCCN)NC(=O)[C@@H]2[C@@H](O)CCN2C(=O)[C@H]([C@H](O)CCN)NC(=O)[C@H]([C@H](O)[C@@H](O)c2ccc(O)cc2)NC(=O)[C@@H]2C[C@@H](O)CN2C(=O)[C@H]([C@@H](C)O)NC1=O` (stereo partly specified) [CHEBI:474180], the IC50 is 110 nM.
